Reference: patent US10770169B2, “Method of providing a treatment to a subject based on a dynamic pathway map” (THE REGENTS OF THE UNIVERSITY OF CALIFORNIA, priority 2010, dated 2020)
Read-outs that look alike come from different tables or passages of the source.

Test system: panel of 55 breast cancer cell lines
Assay: Cell growth inhibition assay (Cell Titer Glo, 72 h, 9 doses; GI50, TGI, LC50)
Type: cell-based, human

CNC(=O)c1c(F)cccc1Nc1nc(Nc2cc3c(cc2OC)CCN3C(=O)CN(C)C)nc2[nH]ccc12 [GSK1838705A]
GI50 (600MPE cell line, censored GI50 values, value is the negative log10 of mol/L): 6.49 | GI50 (AU565 cell line, censored GI50 values, value is the negative log10 of mol/L): 5.63 | GI50 (BT20 cell line, censored GI50 values, value is the negative log10 of mol/L): 4.63 | GI50 (BT474 cell line, censored GI50 values, value is the negative log10 of mol/L): 5.08 | GI50 (BT483 cell line, censored GI50 values, value is the negative log10 of mol/L): 5.52 | GI50 (BT549 cell line, censored GI50 values, value is the negative log10 of mol/L): 5.21 | GI50 (CAMA1 cell line, censored GI50 values, value is the negative log10 of mol/L): 5.05 | GI50 (HCC38 cell line, censored GI50 values, value is the negative log10 of mol/L): 5.00 | GI50 (HCC70 cell line, censored GI50 values, value is the negative log10 of mol/L): 5.18 | GI50 (HCC202 cell line, censored GI50 values, value is the negative log10 of mol/L): 5.11 | GI50 (HCC1143 cell line, censored GI50 values, value is the negative log10 of mol/L): 5.55 | GI50 (HCC1187 cell line, censored GI50 values, value is the negative log10 of mol/L): 5.61 | GI50 (HCC1395 cell line, censored GI50 values, value is the negative log10 of mol/L): 5.28 | GI50 (HCC1419 cell line, censored GI50 values, value is the negative log10 of mol/L): 5.21 | GI50 (HCC1428 cell line, censored GI50 values, value is the negative log10 of mol/L): 5.79 | GI50 (HCC1500 cell line, censored GI50 values, value is the negative log10 of mol/L): 5.02 | GI50 (HCC1806 cell line, censored GI50 values, value is the negative log10 of mol/L): 4.27 | GI50 (HCC1937 cell line, censored GI50 values, value is the negative log10 of mol/L): 4.71 | GI50 (HCC1954 cell line, censored GI50 values, value is the negative log10 of mol/L): 5.08 | GI50 (HCC2185 cell line, censored GI50 values, value is the negative log10 of mol/L): 5.54 | GI50 (HCC3153 cell line, censored GI50 values, value is the negative log10 of mol/L): 5.26 | GI50 (LY2 cell line, censored GI50 values, value is the negative log10 of mol/L): 6.26 | GI50 (MCF7 cell line, censored GI50 values, value is the negative log10 of mol/L): 5.89 | GI50 (MDAMB134VI cell line, censored GI50 values, value is the negative log10 of mol/L): 5.06 | GI50 (MDAMB157 cell line, censored GI50 values, value is the negative log10 of mol/L): 5.05 | GI50 (MDAMB175VII cell line, censored GI50 values, value is the negative log10 of mol/L): 5.30 | GI50 (MDAMB231 cell line, censored GI50 values, value is the negative log10 of mol/L): 5.28 | GI50 (MDAMB361 cell line, censored GI50 values, value is the negative log10 of mol/L): 5.04 | GI50 (MDAMB415 cell line, censored GI50 values, value is the negative log10 of mol/L): 5.37 | GI50 (MDAMB436 cell line, censored GI50 values, value is the negative log10 of mol/L): 5.00 | GI50 (MDAMB453 cell line, censored GI50 values, value is the negative log10 of mol/L): 5.07 | GI50 (MDAMB468 cell line, censored GI50 values, value is the negative log10 of mol/L): 5.29 | GI50 (SKBR3 cell line, censored GI50 values, value is the negative log10 of mol/L): 5.16 | GI50 (SUM149PT cell line, censored GI50 values, value is the negative log10 of mol/L): 5.41 | GI50 (SUM159PT cell line, censored GI50 values, value is the negative log10 of mol/L): 5.46 | GI50 (SUM185PE cell line, censored GI50 values, value is the negative log10 of mol/L): 5.48 | GI50 (SUM225CWN cell line, censored GI50 values, value is the negative log10 of mol/L): 4.89 | GI50 (SUM1315MO2 cell line, censored GI50 values, value is the negative log10 of mol/L): 5.33 | GI50 (cell line 600MPE, value is the negative log10 of mol/L): 6.49 | GI50 (cell line AU565, value is the negative log10 of mol/L): 5.63 | GI50 (cell line BT20, value is the negative log10 of mol/L): 4.63

CCN(CC)CCNC(=O)c1c(C)[nH]c(/C=C2\C(=O)Nc3ccc(F)cc32)c1C [Sunitinib Malate]
GI50 (Homo sapiens, 600MPE cell line, censored GI50 values, read-out: GI50 (converted)): 4.27 µM | GI50 (Homo sapiens, AU565, AU565 cell line, censored GI50 values, read-out: GI50 (converted)): 3.8 µM | GI50 (Homo sapiens, AU565, cell line AU565, read-out: GI50 (converted)): 3.8 µM | GI50 (Homo sapiens, BT-20, BT20 cell line, censored GI50 values, read-out: GI50 (converted)): 16.6 µM | GI50 (Homo sapiens, BT-20, cell line BT20, read-out: GI50 (converted)): 16.6 µM | GI50 (Homo sapiens, BT-474, BT474 cell line, censored GI50 values, read-out: GI50 (converted)): 17 µM | GI50 (Homo sapiens, BT-474, cell line BT474, read-out: GI50 (converted)): 17 µM | GI50 (Homo sapiens, BT-483, BT483 cell line, censored GI50 values, read-out: GI50 (converted)): 18.6 µM | GI50 (Homo sapiens, BT-483, cell line BT483, read-out: GI50 (converted)): 18.6 µM | GI50 (Homo sapiens, BT-549, BT549 cell line, censored GI50 values, read-out: GI50 (converted)): 5.13 µM | GI50 (Homo sapiens, BT-549, cell line BT549, read-out: GI50 (converted)): 5.13 µM | GI50 (Homo sapiens, CAMA-1, CAMA1 cell line, censored GI50 values, read-out: GI50 (converted)): 8.71 µM | GI50 (Homo sapiens, CAMA-1, cell line CAMA1, read-out: GI50 (converted)): 8.71 µM | GI50 (Homo sapiens, HCC38, HCC38 cell line, censored GI50 values, read-out: GI50 (converted)): 5.75 µM | GI50 (Homo sapiens, HCC38, cell line HCC38, read-out: GI50 (converted)): 5.75 µM | GI50 (Homo sapiens, HCC70, HCC70 cell line, censored GI50 values, read-out: GI50 (converted)): 2.51 µM | GI50 (Homo sapiens, HCC70, cell line HCC70, read-out: GI50 (converted)): 2.51 µM | GI50 (Homo sapiens, HCC202, HCC202 cell line, censored GI50 values, read-out: GI50 (converted)): 9.33 µM | GI50 (Homo sapiens, HCC202, cell line HCC202, read-out: GI50 (converted)): 9.33 µM | GI50 (Homo sapiens, HCC1143, HCC1143 cell line, censored GI50 values, read-out: GI50 (converted)): 6.92 µM | GI50 (Homo sapiens, HCC1143, cell line HCC1143, read-out: GI50 (converted)): 6.92 µM | GI50 (Homo sapiens, HCC1187, HCC1187 cell line, censored GI50 values, read-out: GI50 (converted)): 5.01 µM | GI50 (Homo sapiens, HCC1187, cell line HCC1187, read-out: GI50 (converted)): 5.01 µM | GI50 (Homo sapiens, HCC1395, HCC1395 cell line, censored GI50 values, read-out: GI50 (converted)): 4.68 µM | GI50 (Homo sapiens, HCC1395, cell line HCC1395, read-out: GI50 (converted)): 4.68 µM | GI50 (Homo sapiens, HCC1419, HCC1419 cell line, censored GI50 values, read-out: GI50 (converted)): 17.8 µM | GI50 (Homo sapiens, HCC1419, cell line HCC1419, read-out: GI50 (converted)): 17.8 µM | GI50 (Homo sapiens, HCC1428, HCC1428 cell line, censored GI50 values, read-out: GI50 (converted)): 5.13 µM | GI50 (Homo sapiens, HCC1428, cell line HCC1428, read-out: GI50 (converted)): 5.13 µM | GI50 (Homo sapiens, HCC1500, HCC1500 cell line, censored GI50 values, read-out: GI50 (converted)): 6.46 µM | GI50 (Homo sapiens, HCC1500, cell line HCC1500, read-out: GI50 (converted)): 6.46 µM | GI50 (Homo sapiens, HCC1806, HCC1806 cell line, censored GI50 values, read-out: GI50 (converted)): 5.37 µM | GI50 (Homo sapiens, HCC1806, cell line HCC1806, read-out: GI50 (converted)): 5.37 µM | GI50 (Homo sapiens, HCC1937, HCC1937 cell line, censored GI50 values, read-out: GI50 (converted)): 6.92 µM | GI50 (Homo sapiens, HCC1937, cell line HCC1937, read-out: GI50 (converted)): 6.92 µM | GI50 (Homo sapiens, HCC1954, HCC1954 cell line, censored GI50 values, read-out: GI50 (converted)): 5.62 µM | GI50 (Homo sapiens, HCC1954, cell line HCC1954, read-out: GI50 (converted)): 5.62 µM | GI50 (Homo sapiens, HCC2185 cell line, censored GI50 values, read-out: GI50 (converted)): 20.4 µM | GI50 (Homo sapiens, HCC3153 cell line, censored GI50 values, read-out: GI50 (converted)): 11 µM | GI50 (Homo sapiens, LY2 cell line, censored GI50 values, read-out: GI50 (converted)): 6.46 µM | GI50 (Homo sapiens, MCF7, MCF7 cell line, censored GI50 values, read-out: GI50 (converted)): 5.89 µM | GI50 (Homo sapiens, MCF7, cell line MCF7, read-out: GI50 (converted)): 5.89 µM | GI50 (Homo sapiens, MDA-MB-134-VI, MDAMB134VI cell line, censored GI50 values, read-out: GI50 (converted)): 10.7 µM | GI50 (Homo sapiens, MDA-MB-157, MDAMB157 cell line, censored GI50 values, read-out: GI50 (converted)): 6.31 µM | GI50 (Homo sapiens, MDA-MB-175-VII, MDAMB175VII cell line, censored GI50 values, read-out: GI50 (converted)): 5.5 µM | GI50 (Homo sapiens, MDA-MB-231, MDAMB231 cell line, censored GI50 values, read-out: GI50 (converted)): 3.63 µM | GI50 (Homo sapiens, MDA-MB-361, MDAMB361 cell line, censored GI50 values, read-out: GI50 (converted)): 11.7 µM | GI50 (Homo sapiens, MDA-MB-415, MDAMB415 cell line, censored GI50 values, read-out: GI50 (converted)): 5.62 µM | GI50 (Homo sapiens, MDA-MB-436, MDAMB436 cell line, censored GI50 values, read-out: GI50 (converted)): 11.2 µM | GI50 (Homo sapiens, MDA-MB-453, MDAMB453 cell line, censored GI50 values, read-out: GI50 (converted)): 4.17 µM | GI50 (Homo sapiens, MDA-MB-468, MDAMB468 cell line, censored GI50 values, read-out: GI50 (converted)): 4.47 µM | GI50 (Homo sapiens, SK-BR-3, SKBR3 cell line, censored GI50 values, read-out: GI50 (converted)): 6.76 µM | GI50 (Homo sapiens, SUM52PE, SUM52PE cell line, censored GI50 values, read-out: GI50 (converted)): 1.15 µM | GI50 (Homo sapiens, SUM149PT, SUM149PT cell line, censored GI50 values, read-out: GI50 (converted)): 2.69 µM | GI50 (Homo sapiens, SUM185PE, SUM185PE cell line, censored GI50 values, read-out: GI50 (converted)): 1.05 µM | GI50 (Homo sapiens, SUM225CWN, SUM225CWN cell line, censored GI50 values, read-out: GI50 (converted)): 6.31 µM | GI50 (Homo sapiens, SUM1315MO2, SUM1315MO2 cell line, censored GI50 values, read-out: GI50 (converted)): 7.41 µM | GI50 (Homo sapiens, SUM-159-PT, SUM159PT cell line, censored GI50 values, read-out: GI50 (converted)): 1.55 µM | GI50 (Homo sapiens, T47D, T47D cell line, censored GI50 values, read-out: GI50 (converted)): 8.32 µM | GI50 (Homo sapiens, UACC-893, UACC893 cell line, censored GI50 values, read-out: GI50 (converted)): 0.871 µM | GI50 (Homo sapiens, ZR-75-1, ZR751 cell line, censored GI50 values, read-out: GI50 (converted)): 13.2 µM | GI50 (Homo sapiens, ZR-75B, ZR75B cell line, censored GI50 values, read-out: GI50 (converted)): 7.59 µM | GI50 (Homo sapiens, cell line 600MPE, read-out: GI50 (converted)): 4.27 µM | GI50 (Homo sapiens, cell line HCC2185, read-out: GI50 (converted)): 20.4 µM | GI50 (Homo sapiens, cell line HCC3153, read-out: GI50 (converted)): 11 µM | GI50 (Homo sapiens, cell line LY2, read-out: GI50 (converted)): 6.46 µM
